Counter-ions that a name gives are not always drawn.
Columns and labels:
[1] = target: rhIDO (recombinant human IDO) (Homo sapiens, UniProt P14902); experiment: Enzyme assay using rhIDO (rate of kynurenine production); type: biochemical; conditions: 2 h; final concentration of the compound 10 μM; rate relative to reaction without compound; read-out: rhIDO-mediated kynurenine production
In short: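 Kynurenine formation, expressed as % of uncompounded reaction after background subtraction, was read by absorbance at 490 nm following TCA stop, 50 °C hydrolysis and Ehrlich-type p-dimethylbenzaldehyde staining. Recombinant human IDO with ascorbate/methylene blue/catalase was pre-exposed to compound 10 min, then reacted 120 min at 37 °C after adding 2 mM tryptophan stock.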

[2] = target: rhTDO (recombinant human TDO) (Homo sapiens, UniProt P48775); experiment: Enzyme assay using rhTDO (rate of kynurenine production); type: biochemical; conditions: 2 h, read-out: rhTDO-mediated kynurenine production; for remaining activity at 10 µM: final concentration of the compound 10 μM, rate relative to reaction without compound
Sequence of rhTDO (recombinant human TDO) (P48775 whole entry): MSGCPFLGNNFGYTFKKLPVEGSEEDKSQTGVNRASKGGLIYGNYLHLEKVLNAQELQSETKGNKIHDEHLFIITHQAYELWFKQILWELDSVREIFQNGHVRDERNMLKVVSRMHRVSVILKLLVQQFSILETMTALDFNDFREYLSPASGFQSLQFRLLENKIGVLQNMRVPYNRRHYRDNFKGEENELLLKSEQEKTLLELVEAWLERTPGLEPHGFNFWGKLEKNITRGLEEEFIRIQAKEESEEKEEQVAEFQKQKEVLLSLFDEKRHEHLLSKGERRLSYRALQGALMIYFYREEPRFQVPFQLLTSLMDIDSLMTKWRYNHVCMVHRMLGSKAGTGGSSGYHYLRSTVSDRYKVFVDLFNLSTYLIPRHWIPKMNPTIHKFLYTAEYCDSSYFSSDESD
In short: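 Kynurenine output, as percent of untreated control after background subtraction, read at 490 nm with p-dimethylbenzaldehyde following TCA quench and 15 min heating at 50 °C. Reaction: rhTDO with compound, 10 min preincubation then 120 min at 37 °C, started by 20 mM tryptophan stock, in phosphate/ascorbate/methylene blue/catalase.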

[3] = target: T1, TDO in A172 cells (Homo sapiens, UniProt P48775); experiment: TDO cell-based assay, kynurenine production in A172 cells; conditions: A 172; final concentration of the compound 10 μM; rate relative to culture without compound
T1 construct: endogenous in cells; host or cells: A172 cells
T1 sequence (P48775 whole entry): as above
In short: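 A172 cells were preincubated with compound for 1 h, then given L-tryptophan (final 524 μM) for 24 h at 37 °C. Kynurenine was read at 460 nm after p-dimethylbenzaldehyde/TCA reagent, background-subtracted, and expressed as % of no-compound production.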

[4] = target: T2, IDO in A431 cells (Homo sapiens, UniProt P14902); experiment: IDO cell-based assay, kynurenine production in IFN-γ stimulated A431 cells; conditions: A-431, 24 h; final concentration of the compound 10 μM; rate relative to culture without compound
T2 construct: endogenous in cells; host or cells: A431 cells, IFN-γ stimulated
T2 sequence (P14902 whole entry): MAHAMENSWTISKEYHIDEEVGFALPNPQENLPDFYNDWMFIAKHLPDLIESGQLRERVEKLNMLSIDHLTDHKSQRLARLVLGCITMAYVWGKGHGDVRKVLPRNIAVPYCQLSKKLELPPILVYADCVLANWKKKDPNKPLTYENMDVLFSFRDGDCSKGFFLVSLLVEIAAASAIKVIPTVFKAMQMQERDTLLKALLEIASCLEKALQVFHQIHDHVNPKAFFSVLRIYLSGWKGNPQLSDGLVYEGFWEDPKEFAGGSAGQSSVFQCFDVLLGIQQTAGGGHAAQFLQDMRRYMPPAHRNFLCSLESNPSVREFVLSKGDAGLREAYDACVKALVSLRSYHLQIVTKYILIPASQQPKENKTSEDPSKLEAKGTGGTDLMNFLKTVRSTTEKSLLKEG
In short: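 Kynurenine output was read by absorbance at 460 nm after p-dimethylbenzaldehyde/trichloroacetic acid reagent, background-corrected, and given as % of untreated wells. Before the read, cells in 178 μM L-tryptophan medium had 1 h compound preincubation, then 24 h IFN-γ stimulation (added as 100 ng/mL dilution).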

Sequence of rhIDO (recombinant human IDO) (P14902 whole entry): as above

| Compound | remaining activity at 10 µM [1] | remaining activity at 10 µM [3] | remaining activity at 10 µM [4] | remaining activity at 3 µM ([2]; final concentration of the compound 3 μM (data with *)) | remaining activity at 10 µM [2] |
| --- | --- | --- | --- | --- | --- |
| N=C(N)SCc1ccc(Br)cc1C(=O)NCc1ccc(Br)cc1 [Compound 117, 4-Bromo-2-((4-bromobenzyl)carbamoyl)benzyl carbamimidothioate hydrobromide] | 2% | 31% | 7% | – | 9% |
| N=C(N)SCc1cc(Br)ccc1C(=O)NCc1ccc(F)c(Cl)c1 [Compound 116, 5-Bromo-2-((3-chloro-4-fluorobenzyl)carbamoyl)benzyl carbamimidothioate hydrobromide] | 85% | 55% | 92% | – | 21% |
| N=C(N)SCc1c(F)c(F)c(F)c(F)c1CSC(=N)N [Compound 6, (perfluoro-1,2-phenylene)bis(methylene) dicarbamimidothioate dihydrobromide] | 15% | 74% | 75% | – | 9% |
| CNC(=O)c1ccccc1CSC(=N)N [Compound 92, 2-(Methylcarbamoyl)benzyl carbamimidothioate hydrobromide] | 90% | 81% | 112% | – | 68% |
| N=C(N)SCc1ccccc1CC(=O)NCCCCc1ccccc1 [Compound 72, 2-(2-Oxo-2-((4-phenylbutyl)amino)ethyl)benzyl carbamimidothioate hydrobromide] | 70% | 68% | 69% | – | 47% |
| N=C(N)SCc1cc(Br)ccc1C(=O)NCc1ccc(Cl)cc1 [Compound 82, 5-Bromo-2-((4-chlorobenzyl)carbamoyl)benzyl carbamimidothioate hydrobromide] | 89% | 37% | 99% | – | 27% |
| Brc1ccc(CCN2CN=C(SCc3ccccc3CSC3=NCN(CCc4ccc(Br)cc4)CN3)NC2)cc1 [Compound 20, 1,2-bis(((5-(4-bromophenethyl)-1,4,5,6-tetrahydro-1,3,5-triazin-2-yl)thio)methyl)benzene] | 27% | 0% | 6% | – | 44% |
| N=C(N)SCc1cc(Br)ccc1C(=O)NCc1ccc(Cl)cc1Cl [Compound 89, 5-Bromo-2-((2,4-dichlorobenzyl)carbamoyl)benzyl carbamimidothioate hydrobromide] | 81% | 51% | 122% | – | 12% |
| COc1ccc(CCN2CN=C(SCc3ccc(F)cc3CSC3=NCN(CCc4ccc(OC)cc4)CN3)NC2)cc1 [Compound 147, 6,6′-(((4-Fluoro-1,2-phenylene)bis(methylene))bis(sulfanediyl))bis(3-(4-methoxyphenethyl)-1,2,3,4-tetrahydro-1,3,5-triazine)] | 32% | 16% | 16% | – | 10% |
| N=C(N)SCc1cc(Br)ccc1C(=O)NCc1ccc(F)cc1 [Compound 86, 5-Bromo-2-((4-fluorobenzyl)carbamoyl)benzyl carbamimidothioate hydrobromide] | 92% | 36% | 109% | – | 46% |
| N=C(N)[Se]Cc1cc(Br)ccc1C(=O)NCC1CC1 [Compound 107, 5-Bromo-2-((cyclopropylmethyl)carbamoyl)benzyl carbamimidoselenoate hydrobromide] | 97% | 12% | 44% | – | 103% |
| N/C(=N\c1ccc(F)cc1)SCc1ccc(F)cc1CS/C(N)=N/c1ccc(F)cc1 [Compound 127, (4-Fluoro-1,2-phenylene)bis(methylene) (E,E)-bis(N′-(4-fluorophenyl)carbamimidothioate) dihydrobromide] | 0% | 10% | 8% | – | 12% |
| N=C(N)SCc1ccccc1CC(=O)NCCC1CCCCC1 [Compound 69, 2-(2-((2-Cyclohexylethyl)amino)-2-oxoethyl)benzyl carbamimidothioate hydrobromide] | 76% | 73% | 101% | – | 60% |

Second part, led by results:

| remaining activity at 10 µM [1] | remaining activity at 10 µM [3] | remaining activity at 10 µM [4] | remaining activity at 3 µM ([2]; final concentration of the compound 3 μM (data with *)) | Compound | remaining activity at 10 µM [2] |
| --- | --- | --- | --- | --- | --- |
| -2% | 3% | 13% | – | N/C(=N\c1cccc(Br)c1)SCc1cc(Cl)c(Cl)cc1CS/C(N)=N/c1cccc(Br)c1 [Compound 136, (4,5-Dichloro-1,2-phenylene)bis(methylene) (E,E)-bis(N′-(3-bromophenyl)carbamimidothioate) dihydrobromide] | 10% |
| -2% | 4% | 12% | – | N/C(=N\c1ccc(Cl)cc1)SCc1cc(Cl)c(Cl)cc1CS/C(N)=N/c1ccc(Cl)cc1 [Compound 123, (4,5-Dichloro-1,2-phenylene)bis(methylene) (E,E)-bis(N′-(4-chlorophenyl)carbamimidothioate) dihydrobromide] | 10% |
| 90% | 38% | 60% | – | CNC(=O)Cc1ccccc1CS/C(N)=N/c1ccc(Br)cc1 [Compound 79, 2-(2-(Methylamino)-2-oxoethyl)benzyl (E)-N′-(4-bromophenyl)carbamimidothioate hydrobromide] | 34% |
| 0% | 5% | 2% | 16% | N/C(=N\c1ccc(F)cc1F)SCc1cc(Cl)c(Cl)cc1CS/C(N)=N/c1ccc(F)cc1F [Compound 63, (4,5-Dichloro-1,2-phenylene)bis(methylene) (E,E)-bis(N′-(2,4-difluorophenyl)carbamimidothioate) dihydrobromide] | – |
| 25% | 12% | 4% | – | N#Cc1ccc(CNC(=O)c2cc(Br)ccc2CS/C(N)=N/c2ccc(Br)cc2)cc1 [Compound 119, 4-Bromo-2-((4-cyanobenzyl)carbamoyl)benzyl (E)-N′-(4-bromophenyl)carbamimidothioate hydrobromide] | 50% |
| -2% | 5% | 11% | – | N/C(=N\c1ccc(Cl)cc1)SCc1cc(F)c(F)cc1CS/C(N)=N/c1ccc(Cl)cc1 [Compound 132, (4,5-Difluoro-1,2-phenylene)bis(methylene) (E,E)-bis(N′-(4-chlorophenyl)carbamimidothioate) dihydrobromide] | 5% |
| -1% | 10% | 13% | – | N/C(=N\c1ccc(Br)cc1)SCc1ccc(F)cc1CS/C(N)=N/c1ccc(Br)cc1 [Compound 126, (4-Fluoro-1,2-phenylene)bis(methylene) (E,E)-bis(N′-(4-bromophenyl)carbamimidothioate) dihydrobromide] | 6% |
| 15% | 18% | 6% | – | Fc1ccc(CN2CN=C(SCc3ccc(Br)cc3CSC3=NCN(Cc4ccc(F)c(Cl)c4)CN3)NC2)cc1Cl [Compound 144, 6,6′-(((4-Bromo-1,2-phenylene)bis(methylene))bis(sulfanediyl))bis(3-(3-chloro-4-fluorobenzyl)-1,2,3,4-tetrahydro-1,3,5-triazine)] | 19% |
| 15% | 20% | 3% | – | N#Cc1ccc(CNC(=O)c2cc(Br)ccc2CS/C(N)=N/c2ccc(F)c(Cl)c2)cc1 [Compound 118, 4-Bromo-2-((4-cyanobenzyl)carbamoyl)benzyl (E)-N′-(3-chloro-4-fluorophenyl)carbamimidothioate hydrobromide] | 35% |
| 29% | 11% | 14% | – | Fc1ccc(CSC2=NCN(CC3CCCCC3)CN2)c(CSC2=NCN(CC3CCCCC3)CN2)c1 [Compound 121, 6,6′-(((4-Fluoro-1,2-phenylene)bis(methylene))bis(sulfanediyl))bis(3-(cyclohexylmethyl)-1,2,3,4-tetrahydro-1,3,5-triazine)] | 7% |

From patent US12209079B2 (GENERAL INCORPORATED ASSOCIATION PHARMA VALLEY PROJECT …, priority 2017, dated 2025)
